Assay results: patent US10039741B2, “Use of delta tocopherol for the treatment of lysosomal storage disorders” (The United States of America, as represented by the …, priority 2010, dated 2018)
Entries after “also recorded” stand apart in the source; their conditions may differ.

How the values were obtained:
[1] = test system: Wolman disease fibroblasts; assay: Lysotracker staining assay; assay type: cell-based, human
neuron-like NPCD cells = assay: Filipin staining co-stained with neuronal beta III tubulin; assay type: cell-based, human; conditions: neuron-like cells differentiated from NPCD patient MSC
Description: The adipose mesenchymal stem cells (HMSC.AD-100, HMSC-NPC22 and HMSC-NPC23) were isolated from two NPC patients as well as one heath individual and provided by Celleng-tech (Coralville, Iowa). These cells were maintained in MSC expansion media (Celleng-tech, cat# HMSC.E.Media-450) supplemented with 10% FBS 100 unit/ml penicillin and 100 μg/ml streptomycin at 5% CO2, 37° C. For neural differentiation, cells were initially plated at 30% confluency (˜2500 cells/cm^2) using MSC expansion media. After 24 hours, MSC expansion media were withdrew. Cells were washed twice with Dulbecco's phosphate Buffer saline (Invitrogen) and incubated with neural differentiation media (Celleng-tech, cat# NEU.D.Media-450) supplemented with 10% FBS, 100 unit/ml penicillin and 100 μg/ml streptomycin at 5% CO2, 37° C. for additional 3 days.
MSC cells were seeded on coverslips on day 0 in MSC expansion medium. On day 1, cells were washed twice with warm PBS buffer and then incubated with MSC neuronal differentiation medium. On day 4, media were replaced with fresh neuronal differentiation medium. On day 6, cells were fixed with 3.2% paraformaldehyde in HBSS for 15 min. Immunocytochemistry for neuronal beta III tubulin and unesterified cholesterol (filipin staining) was performed as described. The coverslips were examined y a XXX microscope. […]

Wolman disease cells = assay: Amplex-red cholesterol assay (total cholesterol), combination therapy; assay type: cell-based, human
From the text: (1) Amplex-red cholesterol assay. This biochemical assay (Invitrogen) uses cholesterol oxidase and a HRP-Amplex-re reporting system to measure the free cholesterol level in cells. With the addition of acid lipase to this assay, that hydrolyzes cholesterol ester to free cholesterol, the level of total cholesterol in cells including the cholesterol ester can be measured. This assay was used for detecting the total cholesterol level of in fibroblasts from patients with Wolman disease.

NPC1 = assay: Protein expression (Western blot); assay type: cell-based, human; conditions: NPC fibroblasts
Description: Cell lysates were prepared as previously described (31) and proteins in lysates were quantified using Bicinchoninic Acid (BCA) Protein Assay Kit (Sigma-Aldrich). Samples were heated at 65C for 10 min before resolved by SDS-PAGE under reducing conditions. Proteins were transferred to PVDF membranes (Bio-Rad Laboratory) using either Criterion Blotter (Bio-Rad Laboratory) or iBlot dry blotting devices (Invitrogen). For NPC1 and HMG-CoA reductase detection, rabbit polyclonal antibodies against NPC1 (Abcam, cat #ab36983, 1:2000) or HMG-CoA reductase (Millipore, cat #07-457, 1:1000) were used, respectively. A peroxidase-conjugated donkey anti-rabbit IgG (Santa Cruz) was used as secondary antibody at a 1:500 dilution.

[2] = test system: NPC patient-derived skin fibroblasts; assay: Amplex red cholesterol assay (free cholesterol); assay type: cell-based, human
From the text: Free cholesterol accumulation in cells is a hallmark of NPC disease. The Amplex red cholesterol assay was used to screen an approved drug library in the NPC patient-derived skin fibroblasts that have free cholesterol accumulation in late endosome and lysosome. […] We then show δ-tocopherol in the filipin cholesterol staining assay, a method used clinically for NPCD diagnosis. […] Lysosome size is usually enlarged in the NPCD cells using a lysotracker staining assay.
The free cholesterol level in these cells was then measured by a cholesterol oxidase coupled HRP/amplex red detection method with a commercial available kit (Invitrogen). The cells were seeded to black, tissue culture-treated 1536-well plates (Greiner Bio-One, Monroe, N.C.) at 800 cells/well in 5 μl medium by a Multidrop Combi dispenser (Thermo Scientific, Waltham, Mass.) and cultured for 24 hours. The assay plates were added with 23 nl/well of compound DMSO solution using a pintool station (Kalypsys, San Diego, Calif.) and cultured for 3 days. The 1536-well assay plate was washed by a plate-inverted centrifugation method that removing medium by centrifuging plates upside down against a stack of paper towel at 1000 rpm for 1 min followed by addition of 7 μl/well PBS buffer, repeating for two times. The PBS buffer was added with a 45 degree angled dispenser (Kalypsys) or a Multi-Drop Combi dispenser set at medium speed to reduce disturbance to the cells. After the cell wash, 2.5 μl/well of detection mixture from the kit was added followed by 1 hour incubation at 37° C. With the addition of the detection mixture, the cells were lysed by the detergent containing buffer and free cholesterols in cell lysate were oxidized by cholesterol oxidase to produce H2O2 which reacting with amplex red dye in the presence of horseradish peroxidase to yield red fluorescence signal. A ViewLux plate reader (PerkinElmer, Boston, Mass.) was used to measure the fluorescent signal in assay plates with the excitation of 573 nm and emissions of 610 nm.

[3] = test system: baby hamster kidney cells; assay: Cholesterol efflux; assay type: cell-based
[4] = test system: Tay-Sachs disease fibroblasts; assay: Lysotracker staining assay; assay type: cell-based, human
NPCD fibroblasts = assay: Lysotracker staining assay (lysosome size); assay type: cell-based, human
Description: Lysotracker is fluorescent dye that stains acidic compartments in live cells and is well-retained after aldehyde fixation. We have optimized a lysotracker staining assay to visualize the enlarged lysosome size in the NPC skin fibroblasts by applying appropriate concentration of lysotracker dye in comparison with these normal fibroblast cells. Cells were seeded at 8000 cells/well in 100 μl medium in a black/clear bottom, tissue culture treated plate and cultured overnight or in a dedicated time. The cells were live-stained with 100 u/well 50 nM Lysotracker Red-99 dye (Invitrogen) dissolved medium at 37° C. for 1 hr followed by two-times plate wash with PBS buffer using the plate-inverted centrifugation method. The plate was then added with 100 μl/well 3.2% formaldehyde and 1 μg/ml Hoechst 33342 (Invitrogen) in PBS and incubated at room temperature for 30 minutes. After three times of plate wash with PBS buffer, samples were stored at 4° C. until imaging. Samples were photographed using an IN Cell Analyzer 1000 (GE Healthcare) with a 20× objective equipped with CCD camera. DAPI filter and TRITC filter were used to visualize Hoechst and Lysotracker red, respectively. The images were processed by Adobe Photoshop.

[5] = 9 additional fibroblast primary cells from different NPCD patients

## Cc1cc(O)cc2c1O[C@](C)(CCC[C@H](C)CCC[C@H](C)CCCC(C)C)CC2 [δ-tocopherol]
[1]
  size of enlarged lysosomes: significantly reduced
neuron-like NPCD cells
  cholesterol accumulation: significant reduction
Wolman disease cells; 40 μM delta-tocopherol or 80 μM alpha-tocopherol alone
  cholesterol level, sole therapy: cholesterol reduction effect
Wolman disease cells; delta-tocopherol 10 μM combined with 10 μM MBCD
  cholesterol level, combination: cholesterol reduction effect
Wolman disease cells; sub-effective concentrations combined
  interaction of delta-tocopherol and cyclodextrin: synergetic or additive effect
NPC1
  expression of NPC-1 protein: not changed
NPC1; listed as Delta-tocopherol
  expression of NPC-1 protein: did not change
[2]; [5]
  effect compared with α-tocopherol: more potent than that of α-tocopherol
  effect on cholesterol reduction: confirmed
[2]; NPCD fibroblasts
  cholesterol amount (cholesterol reduction): significantly reduced
[2]; free cholesterol amount, filipin staining, lysotracker staining, NPCD fibroblasts
  potency compared with the other vitamin E isoforms: most potent of the eight isoforms of vitamin E; also recorded: more significant and potent than any of the other vitamin E isoforms
[2]; δ-tocopherol at 40 μM, NPC fibroblasts
  effect compared with α-tocopherol: more potent than α-tocopherol at 80 μM
[3]
  cholesterol efflux: significantly increased
[4]
  size of enlarged lysosomes: significantly reduced
NPCD fibroblasts; [5]
  effect on lysosome size decrease: confirmed
NPCD fibroblasts; NPCD fibroblasts
  enlarged lysosome size: decreased and shrunken to the size similar to the wild type cells
